What was measured:
[1] = target: T1, bovine cardiac synthetic myosin filaments (Bos taurus, UniProt Q9BE39); assay: DRX and SRX ATPase rates in bovine cardiac synthetic myosin filaments; type: biochemical; conditions: role: inhibitor, range of concentrations (FIG. 5), Compound A compared with mavacamten
T1 construct: single-turnover ATPase (DRX/SRX)

[2] = test system: HCM pigs (heterozygous MYH7 R403Q mutation); assay: Chronic Compound A treatment in mini-pig model of inherited HCM: mortality, cTnT, cardiac MRI; type: in vivo, Yucatan mini-pigs; conditions: chronic treatment PO
Description: (§1) FIG. 1 is a schematic diagram showing the design for an experiment on the chronic effects of Compound A on HCM and on left atrial and left ventricular geometry and function in a mini-pig model of inherited HCM (“HCM pigs”). Compound A dose is increased over the first 12 weeks of the study to account for weight gain. CMPD A: Compound A. CTRL: control. cMR: cardiac MRI. PV: LV pressure and volume studies (invasive hemodynamics). RNA: LV gene expression studies. HIST: histology. BIO: LV/LA fiber biomechanical studies.
This Example describes an in vivo study that evaluates the chronic effects of Compound A, in a genetic large-animal model of HCM.
(§2) Young (~1 month) cloned Yucatan mini-pigs with a heterozygous MYH7 R403Q mutation (“HCM pigs”) were treated and evaluated as shown in FIG. 1. The pigs were randomly assigned to one of two arms: untreated controls (CTRL, n=29) or daily Compound A (n=22; PO); untreated wild-type pigs (WT) served as […]. The pigs treated with Compound A were divided into two cohorts: A and B. Treated animals received progressively increasing Compound A doses (5, 7.5, 10, and 15 mg/day PO) to account for weight gain. After 14 weeks of treatment, pigs underwent in vivo cardiac MRI (cMR) imaging, including T1 mapping and extracellular volume (ECV) assessments. […]

[3] = test system: α-MHC / β-MHC in the LA; assay: LA myosin isoform content (α-MHC to β-MHC conversion) in HCM pigs; type: in vivo, Yucatan mini-pigs; conditions: HCM pigs (FIG. 3), in comparison to untreated HCM pig controls
Description: as §1
FIG. 3 is a set of graphs showing the effects of Compound A on left atrial (LA) geometry and function in HCM pigs.
as §2

T1 sequence (Q9BE39 whole entry): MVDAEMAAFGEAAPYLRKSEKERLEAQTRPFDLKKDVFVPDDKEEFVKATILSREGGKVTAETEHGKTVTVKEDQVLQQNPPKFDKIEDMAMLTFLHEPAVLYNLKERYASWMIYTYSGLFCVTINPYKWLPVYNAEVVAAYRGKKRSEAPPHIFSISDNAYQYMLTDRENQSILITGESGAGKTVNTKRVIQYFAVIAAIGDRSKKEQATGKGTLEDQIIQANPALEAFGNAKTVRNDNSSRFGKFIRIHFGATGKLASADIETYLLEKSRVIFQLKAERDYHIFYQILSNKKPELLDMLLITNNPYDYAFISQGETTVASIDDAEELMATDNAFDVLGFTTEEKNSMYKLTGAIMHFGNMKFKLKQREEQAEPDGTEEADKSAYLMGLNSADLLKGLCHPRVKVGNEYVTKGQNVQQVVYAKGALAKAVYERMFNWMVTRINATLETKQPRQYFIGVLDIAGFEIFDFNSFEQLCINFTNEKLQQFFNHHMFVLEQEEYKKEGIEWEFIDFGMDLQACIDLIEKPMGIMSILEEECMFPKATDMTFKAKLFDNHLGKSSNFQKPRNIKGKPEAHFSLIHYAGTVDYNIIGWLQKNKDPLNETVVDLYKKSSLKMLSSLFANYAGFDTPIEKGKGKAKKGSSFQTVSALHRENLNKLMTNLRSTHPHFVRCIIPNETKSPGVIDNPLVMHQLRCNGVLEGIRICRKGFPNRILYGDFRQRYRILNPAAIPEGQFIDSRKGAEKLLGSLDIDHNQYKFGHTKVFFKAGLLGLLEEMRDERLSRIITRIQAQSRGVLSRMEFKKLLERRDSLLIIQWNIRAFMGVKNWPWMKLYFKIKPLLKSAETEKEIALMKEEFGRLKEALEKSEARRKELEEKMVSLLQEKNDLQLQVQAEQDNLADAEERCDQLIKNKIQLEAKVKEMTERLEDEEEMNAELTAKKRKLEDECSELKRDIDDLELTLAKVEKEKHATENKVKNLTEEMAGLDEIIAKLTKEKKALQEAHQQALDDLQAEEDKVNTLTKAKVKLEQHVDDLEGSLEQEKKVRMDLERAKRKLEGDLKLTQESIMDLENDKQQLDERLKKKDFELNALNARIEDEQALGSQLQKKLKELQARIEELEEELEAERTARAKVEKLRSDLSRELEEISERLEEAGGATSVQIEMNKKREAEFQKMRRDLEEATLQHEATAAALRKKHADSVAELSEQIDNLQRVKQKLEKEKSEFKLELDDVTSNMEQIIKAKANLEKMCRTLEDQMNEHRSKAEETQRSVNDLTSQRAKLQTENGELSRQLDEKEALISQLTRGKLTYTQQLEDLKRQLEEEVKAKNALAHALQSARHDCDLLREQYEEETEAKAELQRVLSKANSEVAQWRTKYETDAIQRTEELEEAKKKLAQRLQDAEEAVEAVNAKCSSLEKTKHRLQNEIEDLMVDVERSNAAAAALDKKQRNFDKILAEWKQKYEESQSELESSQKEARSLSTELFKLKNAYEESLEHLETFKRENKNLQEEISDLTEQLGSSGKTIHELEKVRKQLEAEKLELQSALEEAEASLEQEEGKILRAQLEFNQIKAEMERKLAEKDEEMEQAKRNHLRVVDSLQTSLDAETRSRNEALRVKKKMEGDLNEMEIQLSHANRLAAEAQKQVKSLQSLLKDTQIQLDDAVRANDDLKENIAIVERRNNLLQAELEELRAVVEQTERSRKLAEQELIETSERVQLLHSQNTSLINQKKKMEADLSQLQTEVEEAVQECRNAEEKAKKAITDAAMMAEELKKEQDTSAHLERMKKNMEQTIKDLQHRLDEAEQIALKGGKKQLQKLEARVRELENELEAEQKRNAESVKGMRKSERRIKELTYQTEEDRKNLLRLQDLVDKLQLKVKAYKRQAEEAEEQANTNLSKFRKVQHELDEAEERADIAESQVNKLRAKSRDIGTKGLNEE
T1 sequence (P85100 whole entry partner): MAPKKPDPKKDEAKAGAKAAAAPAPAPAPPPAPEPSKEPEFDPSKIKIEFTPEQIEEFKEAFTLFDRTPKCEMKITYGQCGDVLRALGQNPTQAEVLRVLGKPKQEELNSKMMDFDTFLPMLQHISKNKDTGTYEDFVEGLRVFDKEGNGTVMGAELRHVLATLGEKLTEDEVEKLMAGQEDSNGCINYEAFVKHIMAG
T1 sequence (Q3SZE5 whole entry partner): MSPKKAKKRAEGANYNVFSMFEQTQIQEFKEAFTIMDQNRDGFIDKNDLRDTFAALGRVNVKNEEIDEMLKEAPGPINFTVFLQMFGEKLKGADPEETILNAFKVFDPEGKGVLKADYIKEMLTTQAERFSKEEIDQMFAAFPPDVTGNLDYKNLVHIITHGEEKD

Row | Structure (SMILES) | disordered relaxed state (DRX) ATPase rate (as a fraction of control) [1] | super-relaxed state (SRX) ATPase rate (as a fraction of control) [1] | left atrial remodeling [2] | conversion of α-MHC to β-MHC in the LA [3]
1 | CC(C)n1c(=O)cc(N[C@@H](C)c2cccc(F)c2)[nH]c1=O [Compound A] | similar | similar | prevented left atrial remodeling | prevented the conversion of α-MHC to β-MHC in the LA
2 | CC(C)n1c(=O)cc(N[C@@H](C)c2ccccc2)[nH]c1=O [mavacamten] | similar | similar |  | 

Source: patent US20260364073A1, “MAVACAMTEN AND DERIVATIVES THEREOF FOR USE IN TREATING ATRIAL DYSFUNCTION” (MyoKardia, Inc., priority 2022, published 2026)
